We go through one molecule from article PMC11555678, “Improved Broad Spectrum Antifungal Drug Synergies with Cryptomycin, a Cdc50-Inspired Antifungal Peptide” (ACS Infectious Diseases, 2024).

The structures appear in SMILES notation. Converted amounts (≈) assume the structure as drawn. Square brackets hold non-standard residues; d marks the D form. Peptide text beside a SMILES is read from it. * marks the point of attachment. Myristoyl = CCCCCCCCCCCCCC(=O)*; Orn = NCCC[C@H](N)C(=O)O

Experiment in all cases: microbe, parasite or virus in culture
The subject of one test is Cn apt1Δ. It is filed as cell-based, Cryptococcus neoformans. The following applies: for MIC: 37 °C, 48 h. On the procedure: (§1) Previous studies have shown that modifying microbiological media with salts such as CaCl2 can have a drastic effect on the growth of fungi and their responses to antifungals.[19],[35] In the case of CaCl2, the divalent cation, Ca^2+, is involved in fungal cell stress response. To understand how the peptide activity may involve calcium and stress response, the MICs of KKOO, KKOO-NH2, FLC, and CAS were assessed as a function of the calcium concentration in liquid YPD media. It was observed that calcium enrichment completely desensitized the wild-type strain to KKOO and KKOO-NH2, Tables 7 and 8, respectively. Effects of calcium enrichment on the susceptibility of Cryptococcus to CAS similar to literature values were recorded, Supporting Information, Table S7.[35]
(§2) All microdilution assays with fungi were carried out in accordance with CLSI protocols from M27 for yeasts and M38 for filamentous fungi, respectively, unless otherwise specified.[64],[65] Briefly, 96-well plates were charged with RPMI1640 media, with operating volume in the first column, 200 μL, and half operating volume, 100 μL, in the remaining wells. Drug stock solution in DMSO was aliquoted into the first well in each row. Half of the volume in the dosed well was serially diluted 2-fold until column 11. Column 11 was used as the negative growth control, and column 12 was used as the positive growth control. ON yeast cultures in YPD were washed twice in DD-H2O, resuspended in PBS, and adjusted to 5000 cfu/mL in RPMI. The 96-well plate was inoculated with 100 μL aliquots of cell suspension per well. Plates were incubated at 37 °C for 2 days.

Another test relates to Cn Crm1-oe. It is filed as cell-based, Cryptococcus neoformans. Conditions: YPD + 0 mM Ca2+, 37 °C, 48 h. On the procedure:
as §1, §2

For the next test, the system named is Cn crm1Δ. The format is cell-based, Cryptococcus neoformans. The following applies: YPD + 0 mM Ca2+, 37 °C, 48 h. On the procedure:
as §1, §2

The subject of another test is A. fumigatus AF293. It is filed as cell-based, Aspergillus fumigatus. The following applies: AF293, 48 h.
In another test the test system is C. neoformans Crm1^OE. It is filed as cell-based, Cryptococcus neoformans. The following applies: compound alone; RPMI1640, 37 °C, 48 h. In a few lines: (§3)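 Two-fold dilution series prepared from DMSO stocks in RPMI1640 were inoculated with 5000 cfu/mL yeast per CLSI M27, then kept at 37 °C for 2 days.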
The test system of a further test is C. neoformans cdc50Δ. It is filed as cell-based, Cryptococcus neoformans. In short, it runs like this: as §3
The next test concerns C. neoformans apt4Δ. The format is cell-based, Cryptococcus neoformans. Conditions: compound alone; RPMI1640, 37 °C, 48 h. In short, it runs like this:
as §3

For a further test, the system named is C. neoformans apt3Δ. The format is cell-based, Cryptococcus neoformans. The following applies: compound alone; RPMI1640, 37 °C, 48 h. In short, it runs like this:
as §3

The subject of another test is C. neoformans apt1Δ. It is filed as cell-based, Cryptococcus neoformans. Conditions: compound alone; RPMI1640, 37 °C, 48 h. In a few lines: as §3

As for `CCCCCCCCCCCCCC(=O)N[C@@H](Cc1c[nH]c2ccccc12)C(=O)NCC(=O)NCC(=O)N[C@H](C(=O)N[C@@H](CCCN)C(=O)N[C@@H](CCCN)C(=O)N[C@@H](CC(N)=O)C(=O)N[C@@H](Cc1ccc(O)cc1)C(=O)N[C@@H](C)C(N)=O)[C@@H](C)CC` [KKOO-NH2] (Myristoyl-WGGI[Orn][Orn]NYA-NH2), the MIC amounted to 4 µg/mL in the test on Cn apt1Δ (YPD + 0 mM Ca2+); 16 µg/mL in the test with Cn apt1Δ (YPD + 2.5 mM Ca2+); 64 µg/mL in the test with Cn apt1Δ (YPD + 5 mM Ca2+); 64 µg/mL in the test on Cn apt1Δ (YPD + 10 mM Ca2+); 4 µg/mL with Cn Crm1-oe; 4 µg/mL in the test on Cn crm1Δ. The MIC against A. fumigatus AF293 turned out to be 32 µg/mL (≈ 26.3 µM); against C. neoformans Crm1^OE it was 4 µg/mL (≈ 3.29 µM); against C. neoformans cdc50Δ (compound alone, RPMI1640, 37 °C, 48 h) it was 4 µg/mL (≈ 3.29 µM); with C. neoformans apt4Δ, 4 µg/mL (≈ 3.29 µM); with C. neoformans apt3Δ, 4 µg/mL (≈ 3.29 µM); in the test on C. neoformans apt1Δ it was 4 µg/mL (≈ 3.29 µM). Also, the “increase of MIC” value in the test with Cn apt1Δ (YPD +0 to +20 mM CaCl2) was determined as 32 fold. Also, in the test with C. neoformans cdc50Δ (Table S1, unit and conditions not given (MICs elsewhere in μg/mL)), the “MIC (SAR screen peptides)” value was found to be 4.
